Measurements reported in patent publication US8399490B2, “Insecticides” (Syngenta Crop Protection LLC, priority 2007, dated 2013).
Like-named read-outs stand apart in the source and are kept apart here.

Experiments:
[1] = test system: Plutella xylostella (diamond back moth); assay: Example B8: comparison with state of the art, Plutella xylostella (larvicide, feeding/residual contact activity, preventive); format: in vivo
Method: Plutella xylostella (Diamond Back Moth)
(§1) (Larvicide, Feeding/Residual Contact Activity, Preventive)
(§2) 24-well microtiter plate (MTP) with artificial diet is treated with test solutions by pipetting. After drying, the MTP's are infested with larvae (L2) (10-15 per well). After an incubation period of 5 days, samples are checked for larval mortality, antifeedant and growth regulation.

[2] = test system: Spodoptera littoralis (Egyptian cotton leafworm); assay: Example B9: comparison with state of the art, Spodoptera littoralis (larvicide, feeding/residual contact activity, preventive); format: in vivo
[3] = test system: Plutella xylostella (diamond back moth); assay: Example B3: Plutella xylostella (larvicide, feeding/residual contact activity, preventive), artificial diet MTP; format: in vivo; conditions: 120 h, L2 larvae on artificial diet, 5 days incubation
Method: as §2, with “Plutella xylostella (Diamond Back Moth) (Larvicide, Feeding/Residual Contact Activity, Preventive) 24-well” for “24-well”

[4] = test system: Heliothis virescens (tobacco budworm); assay: Example B2: Activity against Heliothis virescens (ovo-larvicide, feeding/contact activity, curative), eggs on artificial diet; format: in vivo; conditions: 96 h, 4 days incubation
Method: Activity Against Heliothis virescens (Tobacco Budworm) (Ovo-Larvicide, Feeding/Contact Activity, Curative) Eggs (0-24 h old) are placed in 24-well microtiter plate on artificial diet and treated with test solutions by pipetting. After an incubation period of 4 days, samples are checked for egg mortality, larval mortality, and growth regulation.

[5] = test system: Diabrotica balteata (corn root worm); assay: Example B4: Diabrotica balteata (larvicide, feeding/residual contact activity, preventive), artificial diet MTP; format: in vivo; conditions: 120 h, L2 larvae on artificial diet, 5 days incubation
Method: as §2, with “Diabrotica balteata (Corn Root Worm) (Larvicide, Feeding/Residual Contact Activity, Preventive) 24-well” for “24-well”, “(6-10” for “(10-15”

[6] = test system: Spodoptera littoralis (Egyptian cotton leafworm); assay: Example B1: Activity against Spodoptera littoralis (larvicide, feeding/residual contact activity, preventive), cotton leaf discs; format: in vivo; conditions: foliar, 72 h, L1 larvae on cotton leaf discs, 3 days after treatment
Description: Activity Against Spodoptera littoralis (Egyptian Cotton Leafworm)
as §1
The samples are checked for mortality, repellent effect, feeding behaviour, and growth regulation 3 days after treatment. In this test, compounds listed in Table P above show good activity. In particular compounds P.1, P.2, P.3, P.4, P.5, P.6, P.7, P.8, P.9, P.10, P.11, P.12, P.13, P.14, P.15, P.16, P.17, P.18, P.19, P.20, P.21, P.22, P.23, P.24, P.25, P.26, P.27, P.28, P.29, P.30, P.31, P.32, P.33, P.34, P.35, P.36, P.37, P.38, P.39, P.40, P.41, P.42, P.43, P.44, P.46, P.50, P.51, P.52, P.55, P.56, P.57, P.58, P.59, P.60, P61, P.66, P.67, P.68, P.69, P.70, P.71, P.72, P.73, P.74, P.75, P.76, P.77, P.78, P.83, P.84, P.87 and P.88 show an activity of over 80% at a concentration of 400 ppm.

[7] = test system: Myzus persicae (green peach aphid); assay: Example B6: Activity against Myzus persicae (mixed population, systemic/feeding activity, curative), pea seedling roots in test solution; conditions: 144 h, read-out: activity
[8] = test system: Myzus persicae (green peach aphid); conditions: foliar, 144 h, read-out: activity

Row | SMILES | melting point | pest or weed control at 400 ppm [3] | pest or weed control at 400 ppm [4] | pest or weed control at 400 ppm [5] | pest or weed control at 400 ppm [6] | pest or weed control at 400 ppm [7] | pest or weed control at 400 ppm [8] | further results
1 | CC(C)NC(=O)c1cc2c(c(Cl)c1NC(=O)c1cc(C(F)(F)F)nn1-c1ncccc1Cl)OC(F)(F)O2 [T91.3, reference compound] | – | – | – | – | – | – | – | Death rate (%) after 5 days ([1]; Concentration 12.5 ppm): 0%; Death rate (%) after 5 days ([1]; Concentration 50 ppm): 80%; Death rate (%) after 5 days ([1]; Concentration 200 ppm): 100%; Death rate (%) after 5 days ([2]; Concentration 12.5 ppm): 0%; Death rate (%) after 5 days ([2]; Concentration 50 ppm): 0%; Death rate (%) after 5 days ([2]; Concentration 200 ppm): 100 (growth) %
2 | CC(C)NC(=O)c1c(NC(=O)c2cc(C(F)(F)F)nn2-c2ncccc2Cl)c(Cl)cc2c1OC(F)(F)O2 [P.13] | – | > 80% | > 80% | > 80% | > 80% | – | – | Death rate (%) after 5 days ([1]; Concentration 12.5 ppm): 100%; Death rate (%) after 5 days ([1]; Concentration 50 ppm): 100%; Death rate (%) after 5 days ([1]; Concentration 200 ppm): 100%; insecticidal action compared with the compound from the state of the art (T91.3) ([1]; on Plutella xylostella, especially at low application rates): substantially better insecticidal action; Death rate (%) after 5 days ([2]; Concentration 12.5 ppm): 100%; Death rate (%) after 5 days ([2]; Concentration 50 ppm): 100%; Death rate (%) after 5 days ([2]; Concentration 200 ppm): 100%; insecticidal action compared with the compound from the state of the art (T91.3) ([2]; on Spodoptera littoralis, especially at low application rates): substantially better insecticidal action
3 | Cc1cc2c(c(C(=O)NC(C)C)c1NC(=O)c1cc(Cl)nn1-c1ncccc1Cl)OC(F)(F)O2 [P.30] | – | > 80% | > 80% | > 80% | > 80% | > 80% | > 80% | –
4 | CC(C)NC(=O)c1c(NC(=O)c2cc(Cl)nn2-c2ncccc2Cl)c(Cl)cc2c1OC(F)(F)O2 [P.23] | – | > 80% | > 80% | > 80% | > 80% | > 80% | > 80% | –
5 | CNC(=O)c1c(NC(=O)c2cc(Cl)nn2-c2ncccc2Cl)c(Cl)cc2c1OC(F)(F)O2 [P.22] | – | > 80% | > 80% | > 80% | > 80% | > 80% | > 80% | –
6 | CNC(=O)c1c(NC(=O)c2cc(Br)nn2-c2ncccc2Cl)c(Cl)cc2c1OC(F)(F)O2 [P.18] | – | > 80% | > 80% | > 80% | > 80% | > 80% | > 80% | –
7 | CNC(=O)c1c(NC(=O)c2cc(C(F)(F)F)nn2-c2ncccc2Cl)c(Cl)cc2c1OC(F)(F)O2 [P.15] | – | > 80% | > 80% | > 80% | > 80% | > 80% | > 80% | –
8 | CSCC(C)(C)NC(=O)c1c(NC(=O)c2cc(Br)nn2-c2ncccc2Cl)c(Cl)cc2c1OC(F)(F)O2 [P.20] | – | > 80% | > 80% | > 80% | > 80% | > 80% | > 80% | –
9 | CSCC(C)(C)NC(=O)c1c(NC(=O)c2cc(Cl)nn2-c2ncccc2Cl)c(C)cc2c1OC(F)(F)O2 [P.31] | – | > 80% | > 80% | > 80% | > 80% | > 80% | > 80% | –

Now from value to compound, other results behind:

Row | melting point | SMILES | pest or weed control at 400 ppm [3] | pest or weed control at 400 ppm [4] | pest or weed control at 400 ppm [5] | pest or weed control at 400 ppm [6] | pest or weed control at 400 ppm [7] | pest or weed control at 400 ppm [8] | further results
10 | 173 to 174 °C | CSCC(C)(C)NC(=O)c1c(NC(=O)c2cc(C(F)(F)F)nn2-c2ncccc2Cl)c(C)cc2c1OC(F)(F)O2 | – | – | – | – | – | – | –
11 | 203 to 204 °C | Cc1cc2c(c(C(=O)NC(C)C)c1NC(=O)c1cc(OC(F)F)nn1-c1ncccc1Cl)OC(F)(F)O2 | – | – | – | – | – | – | –
12 | 240 to 242 °C | C[S+]([O-])CC(C)(C)NC(=O)c1c(NC(=O)c2cc(Cl)nn2-c2ncccc2Cl)c(Cl)cc2c1OC(F)(F)O2 (stereo not drawn) | – | – | – | – | – | – | –
13 | 169 to 170 °C | CC(C)NC(=O)c1c(NC(=O)c2cc(C(F)F)nn2-c2ncccc2Cl)ccc2c1OC(C)C2 (stereo not drawn) [P.86] | – | – | – | – | – | – | –
14 | 205 to 206 °C | CNC(=O)c1c(NC(=O)c2cc(C(F)F)nn2-c2ncccc2Cl)c(C)cc2c1OC(C)C2 (stereo not drawn) | – | – | – | – | – | – | –
15 | 88 to 90 °C | CC(C)(CS(C)(=O)=O)NC(=O)c1c(NC(=O)c2cc(C(F)(F)F)nn2-c2ncccc2Cl)c(Cl)cc2c1OCO2 | – | – | – | – | – | – | –
16 | 178 to 179 °C | CCNC(=O)c1c(NC(=O)c2cc(Br)nn2-c2ncccc2Cl)ccc2c1OCO2 [P.65] | – | – | – | – | – | – | –
17 | 211 to 213 °C | CNC(=O)c1c(NC(=O)c2cc(C(F)F)nn2-c2ncccc2Cl)ccc2c1OC(C)C2 (stereo not drawn) [P.85] | – | – | – | – | – | – | –
18 | 236 to 237 °C | CNC(=O)c1c(NC(=O)c2cc(OC(F)F)nn2-c2ncccc2Cl)c(C)cc2c1OC(F)(F)O2 | – | – | – | – | – | – | –
19 | 216 to 217 °C | COc1cc(C(=O)Nc2ccc3c(c2C(=O)NC(C)C)OCO3)n(-c2ncccc2Cl)n1 [P.64] | – | – | – | – | – | – | –
20 | 188 to 190 °C | CC(C)(CS(C)(=N)=O)NC(=O)c1c(NC(=O)c2cc(Cl)nn2-c2ncccc2Cl)c(Cl)cc2c1OC(F)(F)O2 (stereo not drawn) | – | – | – | – | – | – | –
21 | 140 to 142 °C | Cc1cc2c(c(C(=O)NC(C)C)c1NC(=O)c1cc(C(F)F)nn1-c1ncccc1Cl)OC(C)C2 (stereo not drawn) | – | – | – | – | – | – | –
